Source: PubChem BioAssay (NCI)
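The compound was tested at five concentrations on cells cultured in 96-well plates, with a 48-hour exposure period. GI50 = concentration required for 50% inhibition of growth. The concentration for full growth arrest is given as TGI.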

Experiments:
Assay in all cases: DTP human tumour cell line panel, 48 h
OVCAR-8 ovarian = tested on: OVCAR-8 ovarian
COLO 205 colon = tested on: COLO 205 colon
MOLT-4 leukemia = tested on: MOLT-4 leukemia
EKVX NSCLC = tested on: EKVX NSCLC
HS 578T breast = tested on: HS 578T breast
UACC-257 melanoma = tested on: UACC-257 melanoma
SF-539 CNS = tested on: SF-539 CNS
NCI-H460 lung = tested on: NCI-H460 lung
A498 renal = tested on: A498 renal
HCC-2998 colon = tested on: HCC-2998 colon

Row | SMILES | GI50 (OVCAR-8 ovarian) [µM] | TGI (OVCAR-8 ovarian) [µM] | GI50 (COLO 205 colon) [µM] | TGI (COLO 205 colon) [µM] | GI50 (MOLT-4 leukemia) [µM] | TGI (MOLT-4 leukemia) [µM] | GI50 (EKVX NSCLC) [µM] | TGI (EKVX NSCLC) [µM] | GI50 (HS 578T breast) [µM] | TGI (HS 578T breast) [µM] | GI50 (UACC-257 melanoma) [µM] | TGI (UACC-257 melanoma) [µM] | GI50 (SF-539 CNS) [µM] | TGI (SF-539 CNS) [µM] | GI50 (NCI-H460 lung) [µM] | TGI (NCI-H460 lung) [µM] | GI50 (A498 renal) [µM] | TGI (A498 renal) [µM] | GI50 (HCC-2998 colon) [µM] | TGI (HCC-2998 colon) [µM]
1 | NC1(C(=O)O)CSSC1 | 3.6 | 24.4 | 11.8 | 27.1 | 5.61 | > 100 | 4.49 | 35 | 3.91 | > 100 | 3.85 | 22.7 | 7.55 | > 100 | 3 | > 100 | 2.53 | 7.27 | 16.1 | 77.5
2 | Cc1ccc(S(=O)c2ccc([N+](=O)[O-])c3nonc23)cc1 (configuration not stated) | 6.89 | 22.4 | 1.9 | 3.43 | 2.64 | 6.96 | – | – | 21.1 | 60.2 | 11.6 | 23.9 | 19 | 39.3 | 17.7 | 38.6 | 11.8 | 26.4 | 15.6 | 29.4
3 | CN1CCN(CCCOc2ccc3ncnc(Nc4ccc(Oc5cccc(F)c5)c(Cl)c4)c3c2)CC1 | 2.19 | 6.42 | 1.86 | 3.64 | 1.76 | 4.35 | 1.31 | 3.56 | 1.76 | 4.26 | 1.96 | 4.06 | 1.54 | 2.93 | 1.77 | 3.3 | 1.25 | 2.74 | 1.64 | 3.06
4 | CC(=O)c1c(Nc2ccc(F)c(F)c2F)[nH]c2c(F)cc(F)cc2c1=O | 0.365 | > 100 | – | – | 0.425 | – | 0.303 | > 40.4 | 0.293 | 8.69 | 0.338 | 10 | 0.322 | 4.33 | 0.331 | 11.2 | 0.206 | 0.575 | 0.378 | 13.6
5 | COc1ccc2c(c1)c(-c1cc(-c3cn(C)c4ccc(OC)cc34)[nH]n1)cn2C | > 100 | > 100 | > 100 | > 100 | > 100 | > 100 | > 100 | > 100 | > 100 | > 100 | > 100 | > 100 | > 100 | > 100 | > 100 | > 100 | > 100 | > 100 | > 100 | > 100
6 | COc1ccc(-c2conc2-c2ccccc2)cc1 | 0.604 | > 100 | 0.248 | 1.42 | 0.706 | > 100 | 2.64 | > 100 | 0.267 | – | 18.3 | > 100 | 0.272 | 3.87 | 0.324 | 4.37 | 0.107 | 0.58 | 0.534 | 14.7
7 | CCOC(=O)C(=Cc1c(-c2ccccc2)[nH]c2ccccc12)C(=O)OCC | 4.08 | 17.9 | 4.81 | 16.3 | 3.81 | 18.8 | 10.8 | 54.1 | 3.53 | 28.8 | 7.33 | 19.3 | 14.4 | 30.9 | 3.75 | 13.6 | 15.8 | 55.6 | 10.1 | 22.6
8 | COc1ccc(-c2nc(/C=N/Nc3cc(C)nc4ccc(Br)cc34)c(C)o2)cc1 | 1.79 | 3.86 | 1.67 | 3.35 | – | – | 1.93 | 3.44 | 2.02 | 4.1 | 1.94 | 3.57 | 1.83 | 3.3 | 1.93 | 3.73 | 1.49 | 2.89 | 1.96 | 3.65
9 | O=C(O)C(Cc1c[nH]c2ccccc12)N1C(=O)c2ccccc2C1=O (configuration not stated) | – | > 100 | – | > 100 | – | – | – | > 100 | – | > 100 | – | > 100 | – | > 100 | – | > 100 | – | > 100 | – | > 100
10 | CNc1ccc(N=Nc2cccc3ncccc23)cc1 | 98.1 | > 100 | 2.48 | > 100 | 14.2 | > 100 | 3.62 | > 100 | 24.7 | > 100 | > 92.8 | > 100 | 63.8 | > 100 | – | – | – | > 68.4 | 33.5 | > 100
11 | N#Cc1c(-c2ccc(Cl)cc2)csc1NC(=O)Nc1cccc(C(F)(F)F)c1 | – | – | 1.91 | 3.88 | 1.91 | 7.77 | 1.97 | 9.75 | 3.25 | 23.9 | 2.53 | 6.74 | 2.06 | 4.85 | 2.76 | 10.2 | 1.79 | 4.3 | 2.75 | 7.97
12 | COc1cccc(C2CC(=O)Nc3cc4c(cc32)CCC4)c1OC (configuration not stated) | 3.67 | 31.9 | 3.13 | 8.48 | 3.16 | 10.2 | – | – | 3.04 | 34.8 | 1.11 | 11.2 | 3.03 | 10.4 | 3.16 | 12.3 | 2.39 | 13.2 | 7.56 | 28.1
13 | CCCCCCCCCCCCCCCCCCNC(=O)[C@H]1CSC(c2ccc(F)c(OC)c2)N1 (some centres not stated) | 0.976 | 2.7 | – | – | 0.717 | 5.17 | 0.813 | 1.6 | 1.24 | 2.97 | 0.971 | 1.88 | 1.77 | 6.26 | 0.211 | 0.824 | > 50 | > 50 | 1.05 | 1.94
